# Results taken from US4387238A, “Epoxysuccinamic acid compounds” (Taisho Pharmaceutical Co., Ltd., priority 1978, dated 1983).
# Target: T1, papain (Carica papaya, UniProt P00784)
# T1 construct: purchased Sigma Chem. Co
# T1 sequence (P00784 134-345): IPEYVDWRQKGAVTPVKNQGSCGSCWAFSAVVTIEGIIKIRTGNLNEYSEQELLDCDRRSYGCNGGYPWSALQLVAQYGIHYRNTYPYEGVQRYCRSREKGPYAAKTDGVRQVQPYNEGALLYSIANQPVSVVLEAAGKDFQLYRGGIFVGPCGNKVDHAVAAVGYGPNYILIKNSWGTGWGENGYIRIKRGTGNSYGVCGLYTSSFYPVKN
# Assay: Papain inhibitory activity (milk casein proteolysis)
# Type: biochemical
# Design: unit not given beside the values
# Settings: amount of inhibitor for 50% inhibition; pH 6.8, 40° C., casein substrate
# Procedure: Papain inhibitory activity of the compounds of the present invention was assayed as follows: To 0.5 ml of a solution of papain (80 μg/ml, Sigma Chem. Co., 2x, cry.), were added 0.25 ml of 40 mM cysteine dissolved in 20 mM disodium ethylenediamine tetraacetic acid solution adjusted pH to 6.8 with sodium hydroxide and 0.25 ml of 33 mM phosphate buffer (pH 6.8) with or without inhibitor. After incubation for 15 minutes at 40° C., the resulting mixture was added to 5 ml of 1% milk casein solution in the same buffer as described above, and further incubated for 10 minutes at 40° C. Then the mixture was mixed with 5 ml of 0.44 M trichloroacetic acid solution and followed by filtration with a sheet of Toyo filter paper No. 4.
# The extinction of the filtrate was read at 280 nm. The percent inhibition was calculated from the formula, 100×(B-A)/B; wherein B stands for the absorbance without inhibitor and A for the absorbance with inhibitor. The compound Nos. in Table 2 are as defined in Examples as described hereinafter.
row,SMILES,ID50
1,"COC(=O)[C@@H]1O[C@H]1C(=O)Nc1ccccc1C (relative stereo) [Compound No. 35, Methyl N-2'-methylphenyl-2,3-epoxysuccinamate]",16.52 γ
2,"O=C(O)C1OC1C(=O)N1CCCC1C(=O)O (centres unmarked) [Compound No. 99, potassium N-1'-carbopotassium oxytetramethylene-2,3-epoxysuccinamate]",0.104 γ
3,"O=C(O)[C@@H]1O[C@H]1C(=O)Nc1ccccc1 (relative stereo) [Compound No. 95, potassium N-phenyl-2,3-epoxysuccinamate]",0.330 γ
4,"CCCCOC(=O)[C@H]1O[C@@H]1C(=O)Nc1ccccc1 (relative stereo) [Compound No. 52, butyl N-phenyl-2,3-epoxysuccinamate]",5.32 γ
5,"CNC(=O)[C@H]1O[C@@H]1C(=O)Oc1ccccc1 (relative stereo) [Compound No. 84, phenyl N-methyl-2,3-epoxysuccinamate]",12.65 γ
6,"CCOC(=O)[C@@H]1O[C@H]1C(=O)N(C)CC1CCCCC1 (relative stereo) [Compound No. 32, ethyl N-methyl-N-cyclohexanemethyl-2,3-epoxysuccinamate]",71.40 γ
7,"COC(=O)[C@H]1O[C@@H]1C(=O)N1CCOCC1 (relative stereo) [Compound No. 70, Methyl N-oxydiethylene-2,3-epoxysuccinamate]",90.25 γ
8,"CCNC(=O)[C@H]1O[C@@H]1C(=O)OC(C)C (relative stereo) [Compound No. 65, Isopropyl N-ethyl-2,3-epoxysuccinamate]",13.65 γ
9,"O=C(Nc1ccccc1)[C@@H]1O[C@H]1C(=O)OCC1CCCCC1 (relative stereo) [Compound No. 94, cyclohexanemethyl N-phenyl-2,3-epoxysuccinamate]",1.51 γ
10,"CCOC(=O)[C@@H]1O[C@H]1C(=O)Nc1c(Cl)cccc1Cl (relative stereo) [Compound No. 8, ethyl N-2',6'-dichlorophenyl-2,3-epoxysuccinamate]",208.33 γ
11,"CCCNC(=O)[C@@H]1O[C@H]1C(=O)OCC (relative stereo) [Compound No. 16, ethyl N-propyl-2,3-epoxysuccinamate]",22.73 γ
12,"CCOC(=O)[C@@H]1O[C@H]1C(=O)NC1CCCCC1 (relative stereo) [Compound No. 19, ethyl N-cyclohexyl-2,3-epoxysuccinamate]",20.83 γ
13,"CCOC(=O)[C@@H]1O[C@H]1C(=O)N1CCSCC1 (relative stereo) [Compound No. 22, ethyl N-thiadiethylene-2,3-epoxysuccinamate]",95.01 γ
14,"CCOC(=O)C1OC1C(=O)N1CCCC1C(=O)OCc1ccccc1 (centres unmarked) [Compound No. 86, ethyl N-1'-carbobenzoxytetramethylene-2,3-epoxysuccinamate]",105.50 γ
15,"CCOC(=O)[C@H]1O[C@@H]1C(=O)N(C)Cc1ccccc1 (relative stereo) [Compound No. 58, ethyl N-methyl-N-benzyl-2,3-epoxysuccinamate]",231.50 γ
16,"CCOC(=O)[C@@H]1O[C@H]1C(=O)Nc1ccccc1O (relative stereo) [Compound No. 4, ethyl N-2'-hydroxyphenyl-2,3-epoxysuccinamate]",138.88 γ
17,"CCOC(=O)[C@@H]1O[C@H]1C(=O)N1CCCC1 (relative stereo) [Compound No. 73, ethyl N-tetramethylene-2,3-epoxysuccinamate]",128.50 γ
18,"COC(=O)[C@H]1O[C@@H]1C(=O)NC1CCCCC1 (relative stereo) [Compound No. 61, Methyl N-cyclohexyl-2,3-epoxysuccinamate]",19.65 γ
19,"CCOC(=O)[C@@H]1O[C@H]1C(=O)Nc1ccccn1 (relative stereo) [Compound No. 11, ethyl N-2'-pyridinyl-2,3-epoxysuccinamate]",25.05 γ
20,"CCOC(=O)[C@@H]1O[C@H]1C(=O)Nc1ccccc1C(=O)O (relative stereo) [Compound No. 81, ethyl N-2'-carboxyphenyl-2,3-epoxysuccinamate]",36.76 γ
21,"CC(C)COC(=O)[C@H]1O[C@@H]1C(=O)NCc1ccco1 (relative stereo) [Compound No. 39, Isobutyl N-furfuryl-2,3-epoxysuccinamate]",3.08 γ
22,"O=C(Nc1ccccc1)[C@H]1O[C@@H]1C(=O)OC1C=CCC1 (relative stereo) [Compound No. 46, 2'-Cyclopentenyl N-phenyl-2,3-epoxysuccinamate]",2.98 γ

row,SMILES,ID50
1,"CCCOC(=O)[C@H]1O[C@@H]1C(=O)NC(C)C (relative stereo) [Compound No. 64, Propyl N-isopropyl-2,3-epoxysuccinamate]",8.32 γ
2,"CNC(=O)[C@@H]1O[C@H]1C(=O)OCCC(C)C (relative stereo) [Compound No. 89, Isoamyl N-methyl-2,3-epoxysuccinamate]",14.81 γ
3,"CCOC(=O)[C@@H]1O[C@H]1C(=O)NCC1CC1 (relative stereo) [Compound No. 83, ethyl N-cyclopropanemethyl-2,3-epoxysuccinamate]",130.20 γ
4,"O=C(Nc1ccc(I)cc1)[C@@H]1O[C@H]1C(=O)OC1CCCC1 (relative stereo) [Compound No. 24, cyclopentyl N-4'-iodophenyl-2,3-epoxysuccinamate]",3.47 γ
5,"CCOC(=O)[C@@H]1O[C@H]1C(=O)N1CCN(C)CC1 (relative stereo) [Compound No. 23, ethyl N-N'-methylaminodiethylene-2,3-epoxysuccinamate]",868.05 γ
6,"O=C(O)[C@@H]1O[C@H]1C(=O)N1CCCCC1 (relative stereo) [Compound No. 101, Potassium N-pentamethylene-2,3-epoxysuccinamate]",4.05 γ
7,"CCOC(=O)[C@@H]1O[C@H]1C(=O)N1CCOC(C)C1 (some centres unmarked) [Compound No. 33, ethyl N-1'-methyloxydiethylene-2,3-epoxysuccinamate]",95.10 γ
8,"CCOC(=O)[C@H]1O[C@@H]1C(=O)N(CC(C)C)CC(C)C (relative stereo) [Compound No. 56, ethyl N,N-diisobutyl-2,3-epoxysuccinamate]",148.80 γ
9,"CCOC(=O)[C@@H]1O[C@H]1C(=O)Nc1cc(Cl)ccc1C(=O)O (relative stereo) [Compound No. 82, ethyl N-2'-carboxy-5'-chlorophenyl-2,3-epoxysuccinamte]",277.80 γ
10,"CCOC(=O)[C@H]1O[C@@H]1C(=O)Nc1cccc(C)c1 (relative stereo) [Compound No. 51, ethyl N-3'-methylphenyl-2,3-epoxysuccinamate]",18.66 γ
11,"CCOC(=O)[C@@H]1O[C@H]1C(=O)N1CCCC1C (relative stereo) [Compound No. 75, ethyl N-1'-methyltetramethylene-2,3-epoxysuccinamate]",130.10 γ
12,"COc1ccccc1NC(=O)[C@@H]1O[C@H]1C(=O)OCc1ccccc1 (relative stereo) [Compound No. 29, benzyl N-2'-methoxyphenyl-2,3-epoxysuccinamate]",2.91 γ
13,"CCOC(=O)[C@@H]1O[C@H]1C(=O)N1CCCCC1 (relative stereo) [Compound No. 77, Ethyl N-pentamethylene-2,3-epoxysuccinamate]",145.21 γ
14,"O=C(O)[C@@H]1O[C@H]1C(=O)Nc1ccccc1 (relative stereo) [Compound No. 104, Sodium N-phenyl-2,3-epoxysuccinamate]",0.315 γ
15,"COc1ccccc1NC(=O)[C@H]1O[C@@H]1C(=O)OC(C)C (relative stereo) [Compound No. 37, Isopropyl N-2'-methoxyphenyl-2,3-epoxysuccinamate]",5.81 γ
16,"CCOC(=O)[C@@H]1O[C@H]1C(=O)NCC1CCCCC1 (relative stereo) [Compound No. 20, ethyl N-cyclohexanemethyl-2,3-epoxysuccinamate]",20.49 γ
17,"O=C(NC1CCCC1)[C@H]1O[C@@H]1C(=O)Oc1ccccc1 (relative stereo) [Compound No. 47, Phenyl N-cyclopentyl-2,3-epoxysuccinamate]",3.64 γ
18,"CCCOC(=O)[C@H]1O[C@@H]1C(=O)NC1CCCC1 (relative stereo) [Compound No. 63, Propyl N-cyclopentyl-2,3-epoxysuccinamate]",4.23 γ
19,"CCOC(=O)[C@@H]1O[C@H]1C(=O)N(C)C (relative stereo) [Compound No. 85, ethyl N,N-dimethyl-2,3-epoxysuccinamate]",39.50 γ
20,"C=CCOC(=O)[C@H]1O[C@@H]1C(=O)NCCc1ccccc1 (relative stereo) [Compound No. 71, Allyl N-phenethyl-2,3-epoxysuccinamate]",4.13 γ
21,"CCOC(=O)C1OC1C(=O)N1CCSCC1C (centres unmarked) [Compound No. 80, Ethyl N-1'-methylthiadiethylene-2,3-epoxysuccinamate]",120.53 γ
22,"O=C(O)[C@@H]1O[C@H]1C(=O)NC1CCCCC1 (relative stereo) [Compound No. 107, N-Cyclohexyl-2,3-epoxysuccinamic acid]",0.214 γ
